Test system: human hepatocellular carcinoma SMMC-7721
Assay: Inhibition of tumor growth of human hepatocellular carcinoma SMMC-7721 in nude mice xenograft model
Assay type: in vivo, Balb/c nu/nu nude mice
Description: 70 Balb/c nu/nu nude mice, 6 weeks old, female, were bought from Shanghai Experimental Animal Resource Center (Shanghai B&K Universal Group Limited).
SMMC-7721 cells were commercially available from Shanghai Institutes for Biological Science, CAS (Shanghai, China).
The establishment of tumor nude mice xenograft model: SMMC-7721 cells in logarithmic growth period were cultured. After cell number was counted, the cells were suspended in 1×PBS, and the concentration of the cell suspension was adjusted to 1.5×10^7/ml. The tumor cells were inoculated under the skin of right armpit of nude mice with a 1 ml syringe, 3×10^6/0.2 ml/mice. 70 nude mice were inoculated in total.
When the tumor size reached 30-130 mm^3, 58 mice were divided randomly into the different groups. The difference of the mean value of tumor volume in each group was less than 10% and drugs were started to be administrated.
Animal body weight and tumor size were tested twice a week during the experiment. Clinical symptoms were recorded every day. At the end of the administration, the tumor size was recorded by taking pictures. One mouse was sacrificed in each group and tumor tissue was taken and fixed in 4% paraformaldehyde. Observation was continued after the administration, and when the mean size of tumor was larger than 2000 mm^3, or the dying status appeared, the animals were sacrificed, gross anatomy was conducted, and the tumor tissue was taken and fixed in 4% paraformaldehyde.
The formula for calculating the tumor volume (TV) is: TV=a×b^2/2, wherein a, b independently represent the length and the breadth of the tumor. The formula for calculating the relative tumor volume (RTV) is: RTV=Vt/V0, wherein V0 is the tumor volume at the beginning of the administration, and Vt is the […] when measured. The index for evaluating the antitumor activity is relative tumor increment rate T/C (%), and the formula is: T/C (%)=(TRTV/CRTV)×100%, wherein, TRTV is the RTV of the treatment group, and CRTV is the RTV of the negative control group.
Evaluation standard for efficacy: it is effective if the relative tumor increment rate T/C (%) is ≦40% and p<0.05 by statistics analysis.

[1] = 10 mg/kg po qd x 2 weeks, at the end of administration
[2] = 30 mg/kg po qd x 2 weeks, at the end of administration
[3] = 100 mg/kg po qd x 2 weeks, at the end of administration (day 15)

[2H]C([2H])([2H])NC(=O)c1cc(Oc2ccc(NC(=O)Nc3ccc(Cl)c(C(F)(F)F)c3)cc2)ccn1 [CM4307, 4-(4-(3-(4-chloro-3-(trifluoromethyl)phenyl)ureido)-phenoxy)-N-(methyl-d3)picolinamide]
relative tumor increment rate T/C % [1]: 53.6%
relative tumor increment rate T/C % [2]: 40.8%
increase of relative value of tumor inhibition compared with CM4306 (32.2%/19.6%−1=64%) (100 mg/kg po qd x 2 weeks): about 60%
relative tumor increment rate T/C % [3]: 19.6%

[2H]C([2H])([2H])NC(=O)c1cc(Oc2ccc(NC(=O)Nc3ccc(Cl)c(C(F)(F)F)c3)cc2)ccn1 [CM4306, 4-(4-(3-(4-chloro-3-(trifluoromethyl)phenyl)ureido)-phenoxy)-2-(N-methyl)picolinamide, reference compound]
relative tumor increment rate T/C % [1]: 56.9%
relative tumor increment rate T/C % [2]: 40.6%
relative tumor increment rate T/C % [3]: 32.2%
